Measured values published in patent publication US20090275574A1, “NOVEL COMPOUNDS-300” (ASTRAZENECA AB, priority 2008, published 2009).

Columns and labels:
[1] = molecular target: T1, cloned human M4 receptor (Homo sapiens, UniProt P08173); experiment: hM4 receptor GTPγS binding; assay type: biochemical; settings: CHO membranes expressing hM4, [35S]GTPγS binding
T1 construct: purchased Perkin-Elmer RBHM4M; host or cells: Chinese hamster ovary cells (CHO), membranes
T1 sequence (P08173 1-479): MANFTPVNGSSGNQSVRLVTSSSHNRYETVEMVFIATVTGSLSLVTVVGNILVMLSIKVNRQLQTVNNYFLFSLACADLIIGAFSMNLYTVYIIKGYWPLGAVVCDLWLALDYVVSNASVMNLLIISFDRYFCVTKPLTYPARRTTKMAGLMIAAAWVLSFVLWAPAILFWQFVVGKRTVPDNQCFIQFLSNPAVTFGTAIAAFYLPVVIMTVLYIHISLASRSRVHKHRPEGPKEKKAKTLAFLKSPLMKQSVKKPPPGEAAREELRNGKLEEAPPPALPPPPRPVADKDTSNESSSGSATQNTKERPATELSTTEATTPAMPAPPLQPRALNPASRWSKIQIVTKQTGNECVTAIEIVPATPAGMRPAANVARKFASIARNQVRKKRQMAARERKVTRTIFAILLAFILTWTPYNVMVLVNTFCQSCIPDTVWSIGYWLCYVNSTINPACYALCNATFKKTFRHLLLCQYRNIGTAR
Method: hM4 Receptor GTPγS Binding Membranes produced from Chinese hamster ovary cells (CHO) expressing the cloned human M4 receptor (human Muscarinic receptor subtype 4, gene bank access NM_000741), are obtained from Perkin-Elmer (RBHM4M). The membranes are thawed at 37° C., passed 3 times through a 23-gauge blunt-end needle, diluted in the GTPγS binding buffer (50 mM Hepes, 20 mM NaOH, 100 mM NaCl, 1 mM EDTA, 5 mM MgCl2, pH 7.4, 100 μM DTT). The EC50, IC50 and Emax of the compounds of the invention are evaluated from 10-point dose-response curves (three fold concentration range) done in 60 μl in 384-well non-specific binding surface plate (Corning). Ten microliters from the dose-response curves plate (5× concentration) are transferred to another 384 well plate containing 25 μl of the following: 10 μg of hM4 membranes, 500 μg of Flashblue beads (Perkin-Elmer) and GDP 40 μM. An additional 15 μl containing 3.3× (60,000 dpm) of GTPγ^35S (0.4 nM final) are added to the wells resulting in a total well volume of 50 μl. Basal and maximal stimulated [^35S]GTPγS binding are determined in absence and presence of 30 μM final of acetylcholine agonist. The membranes/beads mix are pre-incubated for 15 minutes at room temperature with 40 μM GDP prior to distribution in plates (20 μM final). The reversal of acetylcholine-induced stimulation (10 μM final) of [^35S]GTPγS binding is used to assay the antagonist properties (IC50) of the compounds. The plates are incubated for 60 minutes at room temperature then centrifuged at 400 rpm for 5 minutes. The radioactivity (cpm) is counted in a Trilux (Perkin-Elmer). Values of EC50, IC50 and Emax are obtained using sigmoidal fits of a non-linear curve-fitting program (XLfit version 4.2.2 Excel add-in version 4.2.2 build 18 math 1Q version 2.1.2 build 18) of percent stimulated [^35S]GTPγS binding vs. log(molar ligand). All pEC50 and pIC50 values are reported as arithmetic means±standard error of mean of ‘n’ independent experiments.

[2] = molecular target: T2, hM1 (human Muscarinic receptor subtype 1) (Homo sapiens, UniProt P11229); experiment: Human M1 calcium mobilization FLIPR assay; assay type: cell-based; settings: hM1 expressed in CHO cells, intracellular Ca2+ release (FLIPR)
T2 construct: expressed in transfected cells; host or cells: CHO cells (ATCC)
T2 sequence (P11229 1-460): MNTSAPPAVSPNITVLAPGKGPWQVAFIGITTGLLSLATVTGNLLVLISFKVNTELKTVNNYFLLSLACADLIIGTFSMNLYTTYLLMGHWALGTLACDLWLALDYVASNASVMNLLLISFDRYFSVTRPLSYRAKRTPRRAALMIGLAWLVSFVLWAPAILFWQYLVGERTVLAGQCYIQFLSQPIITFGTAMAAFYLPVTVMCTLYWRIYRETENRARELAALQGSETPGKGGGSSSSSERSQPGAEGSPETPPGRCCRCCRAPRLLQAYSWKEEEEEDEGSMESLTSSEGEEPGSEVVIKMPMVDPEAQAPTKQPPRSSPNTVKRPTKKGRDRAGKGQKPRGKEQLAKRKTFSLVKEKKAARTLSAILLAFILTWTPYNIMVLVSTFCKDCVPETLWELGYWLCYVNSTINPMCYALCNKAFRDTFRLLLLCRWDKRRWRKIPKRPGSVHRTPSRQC
Procedure, shortened: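 CHO cells expressing human M1, M3 or M5 receptors, dye-loaded 60 min at 37 °C; Ca2+ release read by FLIPR (510-570 nm). M3/M5 inhibition measured against 2 nM acetylcholine added after compound; M1 agonism from maximal RFU, others max minus min. pEC50/pIC50 from sigmoidal fits, 10-point three-fold dilutions.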

Q: For `CCOC[C@@H]1CC[C@H](N2CCC(N3C(=O)CO[C@H]4CCCC[C@@H]43)CC2)C1` [Example 43, (4aS,8aS)-4-(1-((1S,3R)-3-(ethoxymethyl)cyclopentyl)piperidin-4-yl)hexahydro-2H-benzo[b][1,4]oxazin-3(4H)-one], which EC50 [1] is on record?
A: Its EC50 is over 28100 nM.

Q: What about the EC50 [2] of the same compound?
A: The EC50 was 12 nM.
